Test results from publication PMC11124362, “Metabolism, Disposition, Excretion, and Potential Transporter Inhibition of 7–16, an Improving 5-HT2A Receptor Antagonist and Inverse Agonist for Parkinson’s Disease” (Molecules, 2024).

Assays:
[1] = Excretion and metabolite identification in urine and feces of intact rats; type: in vivo, Sprague-Dawley rats; conditions: intact rats, 0–168 h, oral 3 mg/100 µCi/kg
Description: In the urine and feces excretion experiment, six rats (3 females and 3 males) were administered a single oral dose of [^14C]7–16 at 3 mg/100 µCi/kg. Urine, feces and cage washing/cleaning solution samples were collected from 0 to 168 h following drug administration at the following time intervals: 0–8, 8–24 h (0–24 h for feces), 24–48, 48–72, 72–96, 96–120, 120–144, and 144–168 h. In the biliary excretion experiment, 8 rats using a bile duct cannula (BDC) (4 females and 4 males) were administered a single oral dose of [^14C]7–16 at 3 mg/100 µCi/kg. Bile, urine, feces, and cage washing solution were collected from before and 0–72 h after oral administration at the following time intervals: 0–4, 4–8 (urine 0–8), 8–24 (feces 0–24), 24–48, and 48–72 h. All samples were collected and refrigerated at −20 °C until determination of the radioactive concentrations by liquid scintillation counter (Perkin Elmer Corporation, Waltham, MA, USA). Urine, feces, and bile samples at each time period were mixed by equal percentages of either volume or weight. After the mixed samples were treated, the radio-profiles and metabolite identification in the bile, urine, and feces samples were carried out by LC-RAM and UPLC-Q Exactive HRMS, and the TRA% of each metabolite in plasma and the percentage of dose (dose%) of each compound in urine, feces, and bile samples were calculated.

[2] = test system: CYP2B6; assay: Metabolic phenotype by rhCYP isozymes, CYP2B6; type: in vitro ADME, human; conditions: 7–16 1 µM
Description: (§1) Based on the result of metabolite identification, two metabolites were selected as targets for metabolic phenotyping analysis. Seven CYP isozymes (CYP1A2, CYP2B6, CYP2C8, CYP2C9, CYP2C19, CYP2D6, and CYP3A4) were investigated using the rhCYP isozymes method. In brief, 7–16 (1 µΜ) was incubated with each rhCYP isozyme ([…]) in 100 mM sodium phosphate buffer (pH 7.4) containing 3 mM magnesium chloride. After 10 min of preincubation at 37 °C, the reactions were initiated by adding NADPH (1 mM) and then incubated at 37 °C in a shaking water bath for 0, 5, 15, and 30 min. The specific substrates of each rhCYP isozyme were incubated as the above method to confirm the activity of the incubation system. The samples were prepared in triplicates. The reactions were terminated by adding three times the volume of ice-cold acetonitrile (600 µL) and stored at −20 °C until analysis. After pre-treatment, the samples were determined by the LC–MS/MS (Shimadzu Exion-Triple Quad 4500) method. The relative contribution rate of each isozyme to the metabolism of 7–16 was evaluated in HLMs using the following formula: Contributionx% = Vx × Abundancex (pmol/mg protein)/Σ(Vi × Abundancei). Vx (µL/min/pmol) is the production rate of metabolites for each rhCYP isozyme.

[3] = test system: CYP2C19; assay: Metabolic phenotype by rhCYP isozymes, CYP2C19; type: in vitro ADME, human; conditions: 7–16 1 µM
Description: as §1

[4] = test system: CYP2D6; assay: Metabolic phenotype by rhCYP isozymes, CYP2D6; type: in vitro ADME, human; conditions: 7–16 1 µM
Description: as §1

[5] = target: T1, OATP1B3 (Homo sapiens, UniProt Q9NPD5)
T1 sequence (Q9NPD5 1-702): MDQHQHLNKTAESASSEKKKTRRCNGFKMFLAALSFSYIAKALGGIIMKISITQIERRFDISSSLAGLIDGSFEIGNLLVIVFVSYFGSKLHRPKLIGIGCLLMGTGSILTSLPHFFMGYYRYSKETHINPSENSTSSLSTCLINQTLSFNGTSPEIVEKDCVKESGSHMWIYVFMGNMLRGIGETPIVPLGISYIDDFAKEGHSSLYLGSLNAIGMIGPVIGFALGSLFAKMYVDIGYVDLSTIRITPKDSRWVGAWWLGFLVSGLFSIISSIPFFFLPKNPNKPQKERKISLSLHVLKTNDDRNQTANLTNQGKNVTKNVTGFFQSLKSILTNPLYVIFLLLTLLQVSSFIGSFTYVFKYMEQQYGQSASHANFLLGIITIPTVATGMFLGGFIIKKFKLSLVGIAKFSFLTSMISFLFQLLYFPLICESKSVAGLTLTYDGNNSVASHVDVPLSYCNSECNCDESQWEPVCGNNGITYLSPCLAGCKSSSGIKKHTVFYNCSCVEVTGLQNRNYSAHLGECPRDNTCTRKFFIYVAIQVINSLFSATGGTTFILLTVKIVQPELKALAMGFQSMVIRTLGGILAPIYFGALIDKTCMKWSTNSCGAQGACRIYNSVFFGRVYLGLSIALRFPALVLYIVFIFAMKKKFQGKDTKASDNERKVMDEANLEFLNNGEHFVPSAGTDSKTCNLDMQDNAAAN

[6] = target: T2, OAT3 (Homo sapiens, UniProt Q8TCC7)
T2 sequence (Q8TCC7 1-542): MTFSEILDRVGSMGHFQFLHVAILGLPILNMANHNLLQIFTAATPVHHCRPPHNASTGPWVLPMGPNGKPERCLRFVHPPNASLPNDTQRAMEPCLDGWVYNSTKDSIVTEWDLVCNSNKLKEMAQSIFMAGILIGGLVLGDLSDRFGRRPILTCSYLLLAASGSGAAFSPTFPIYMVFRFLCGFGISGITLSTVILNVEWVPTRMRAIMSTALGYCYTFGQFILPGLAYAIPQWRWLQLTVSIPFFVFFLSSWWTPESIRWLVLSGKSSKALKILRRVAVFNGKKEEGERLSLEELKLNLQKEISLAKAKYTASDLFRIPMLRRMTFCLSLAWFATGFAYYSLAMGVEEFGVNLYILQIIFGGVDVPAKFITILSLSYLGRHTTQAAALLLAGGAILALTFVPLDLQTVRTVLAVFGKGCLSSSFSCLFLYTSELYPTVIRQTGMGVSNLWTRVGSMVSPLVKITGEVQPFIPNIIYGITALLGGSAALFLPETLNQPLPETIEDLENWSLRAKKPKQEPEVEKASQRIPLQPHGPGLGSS

[7] = target: 5-HT2A receptor; design: method as in PMID 35279606; conditions: cited from earlier work
[8] = test system: CYP2C19; design: method as in PMID 35279606; conditions: previous study; read-out: CYP2C19 inhibition IC50; cited from earlier work
[9] = test system: CYP2D6; design: method as in PMID 35279606; conditions: previous study; read-out: CYP2D6 inhibition IC50; cited from earlier work

CN1CCC(N(Cc2ccc(F)cn2)C(=O)NCc2ccc(OCC(F)(F)F)cc2)CC1 [7–16, 3-(4-(2,2,2-trifluoroethoxy)benzyl)-1-((5-fluoropyridin-2-yl)methyl)-1-(1-methylpiperidin-4-yl) urea]
recovery of radioactivity in cage rinse/wash, percent of dose [1]: 4.06%
recovery of radioactivity in feces, percent of dose [1]: 55.0%
recovery of radioactivity in urine, percent of dose [1]: 39.9%
total recovery of radioactivity, percent of administered dose ([1]; mean of both sexes): 98.9%
relative contribution of CYP2B6 to metabolism [2]: little or no contribution
relative contribution of CYP2C19 to metabolism [3]: little or no contribution
relative contribution of CYP2D6 to metabolism [4]: little or no contribution
IC50 [5]: 89.5 µM
IC50 [6]: > 100 µM
IC50 ([7]; previous study, read-out: 5-HT2A inverse agonist activity IC50): 0.0021 µM
fold higher inverse agonist activity than pimavanserin ([7]; versus pimavanserin): 23 fold
IC50 [8]: > 62.9 µM
IC50 [9]: > 62.9 µM
